We go through ten molecules from article PMC4176650 (BioMed Research International, 2014).

Entries after “also recorded” stand apart in the source; their conditions may differ. Like-named read-outs stand apart in the source and are kept apart here.

One data set concerns the target Jack bean urease (Canavalia ensiformis, UniProt P07374). Description: biochemical. The note with it: for Type of inhibition / Kmapp / Vmaxapp: Urease (JB); for Kmapp: Km without inhibitor 2.5 mM; for Vmaxapp: Vmax without inhibitor 105. The protocol: (§1) Reaction mixtures comprising 25 μL of enzyme (Jack bean and Bacillus pasteurii ureases) solution and 55 μL of buffers containing urea (2–24 mM for jack bean and Bacillus pasteurii ureases) were incubated with 5 μL of test compounds at 30°C for 4.15 min in 96-well plates. The increasing absorbance at 560 nm was measured after 10 min, using a microplate reader (Molecular Devices, USA). All reactions were performed in triplicate in a final volume of […]. The results (change in absorbance per min.) were processed by using SoftMax Pro software (Molecular Devices, USA). All the assays were performed at pH 6.8 (3 mM sodium phosphate buffer) and 7 μg of phenol red per mL as indicator [10]. Percentage inhibitions were calculated from the formula 100 − (ODtestwell/ODcontrol) × 100. Thiourea was used as the standard inhibitor of urease.
(§2) The concentration of tested compounds that inhibited the hydrolysis of substrates (Jack bean urease and Bacillus pasteurii ureases) by 50% (IC50) was determined by monitoring the effect of various concentrations of the compounds in the assays on the inhibition values. The IC50 (inhibitor conc. that inhibits 50% activity of both enzymes) values were then calculated using the EZ-Fit Enzyme Kinetics program (Perrella Scientific Inc., Amherst, USA).
(§3) Dissociation constant/inhibition constant (K i) were determined by the interpretation of Dixon plot. Lineweaver-Burk plot and their secondary replots using initial velocities obtained over a substrate concentration range between 2.0 and 24 mM urea for J.B. and B.P. ureases, respectively. Nonlinear regression equations were used to determine the values of K I, K m, and V max in the Lineweaver-Burk plot and Dixon plots. The K i values dissociation constant/inhibition constant of J.B. urease-inhibitor or B.P. urease-inhibitor complex into free J.B. urease or B.P. urease and inhibitor was determined graphically by Dixon plot and Lineweaver-Burk plots.

Data set [1] can be described thus: Viability of human neutrophils (WST-1). It is filed as cell-based. As to conditions: isolated human neutrophils; human neutrophils 1 × 10^7 cells/mL; conc. 200 µg/mL. The procedure:
Heparinized fresh venous blood was drawn from healthy volunteers in a local blood bank and the neutrophils were isolated by developed method of McLaughlin et al.. 45 The whole blood was mixed with Ficoll-Paque (Pharmacia Biotech Amersham, Uppsala). After sedimentation the unwanted red blood cells (RBCs) were layered as a buffy coat on the cushion of Ficoll (3.0 mL). It was then centrifuged for 30 min. at 1500 rpm, and supernatant was discarded. Further treated with hypotonic ammonium chloride solution (0.83%) to lyse RBCs. The preparation was then centrifuged and the neutrophils were washed with Modified Hank's Solution (MHS) and resuspended at a concentration of 1 × 10^7 cells/mL.
Isolated human neutrophils (1 × 10^7 cells/mL) were incubated first with test compounds for 30 min., and then after the addition of 0.25 mM WST-1 (Dojindo Laboratories Kumamoto, Japan) in water bath shaker at 37°C [18, 19]. After 3 hrs incubation, change in the absorbance was measured at 450 nm in 96-well plate by using microplate reader Spectra MAX 340 (Molecular Devices, CA, USA). The OD is the mean of the five experimental replicates. The percentage (%) cell viability was calculated by using the following formula: (1) Percentage (%) viability of cells =[…].

Data set [2] has as its system Lemna aequinoctialis Welv. Description: Lemna phytotoxicity assay. The note with it: seven days. The procedure:
The assay was performed according to the modified protocol of Bremner. […] Sterilized conical flasks were inoculated with compounds with desired concentrations prepared from the stock solution and allowed to evaporate overnight. Each flask was inoculated with 20 mL of sterilized E-medium and ten Lemna aequinoctialis Welv. each containing a rosette of three fronds. Other flasks were supplemented with methanol serving as negative control and reference inhibitor, that is, phosphoroamide (a urease inhibitor already in commercial use) serving as positive control. The treatments were replicated three times and the flasks incubated at 30°C Fisons Fi-Totron 600 H growth cabinet for seven days, 9000 lux light intensity, 56 ± 10 rh (relative humidity), and 12 h day length. Growth of Lemna aequinocitalis in compound containing flask was determined by counting the number of fronds per dose and growth inhibition calculated with reference to negative control.

Data set [3] deals with Bacillus pasteurii urease (Sporosarcina pasteurii, UniProt P41020). Description: Urease assay and inhibition kinetics, Bacillus pasteurii urease. Format: biochemical. The arrangement: Vmaxapp: unit not given here. The note with it: for Kmapp: Km without inhibitor 5.1 mM; for Vmaxapp: Vmax without inhibitor 160. The procedure:
as §1, §2, §3

Setting [4] is: Urease (BP), Dixon plot and secondary Lineweaver-Burk plot, pH 6.8, 30°C, read-out: Ki (µM) ± SEM.

Bacillus pasteurii urease, sequence (P41021 whole entry): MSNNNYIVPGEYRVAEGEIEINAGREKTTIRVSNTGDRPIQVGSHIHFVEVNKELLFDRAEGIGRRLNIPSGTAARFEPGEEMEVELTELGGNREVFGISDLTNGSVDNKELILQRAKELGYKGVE
Bacillus pasteurii urease, sequence (P41022 whole entry, further chain): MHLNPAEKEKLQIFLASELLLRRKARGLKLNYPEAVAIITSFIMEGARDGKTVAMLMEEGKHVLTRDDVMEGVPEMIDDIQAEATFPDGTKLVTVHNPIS
Bacillus pasteurii urease, sequence (P41020 whole entry): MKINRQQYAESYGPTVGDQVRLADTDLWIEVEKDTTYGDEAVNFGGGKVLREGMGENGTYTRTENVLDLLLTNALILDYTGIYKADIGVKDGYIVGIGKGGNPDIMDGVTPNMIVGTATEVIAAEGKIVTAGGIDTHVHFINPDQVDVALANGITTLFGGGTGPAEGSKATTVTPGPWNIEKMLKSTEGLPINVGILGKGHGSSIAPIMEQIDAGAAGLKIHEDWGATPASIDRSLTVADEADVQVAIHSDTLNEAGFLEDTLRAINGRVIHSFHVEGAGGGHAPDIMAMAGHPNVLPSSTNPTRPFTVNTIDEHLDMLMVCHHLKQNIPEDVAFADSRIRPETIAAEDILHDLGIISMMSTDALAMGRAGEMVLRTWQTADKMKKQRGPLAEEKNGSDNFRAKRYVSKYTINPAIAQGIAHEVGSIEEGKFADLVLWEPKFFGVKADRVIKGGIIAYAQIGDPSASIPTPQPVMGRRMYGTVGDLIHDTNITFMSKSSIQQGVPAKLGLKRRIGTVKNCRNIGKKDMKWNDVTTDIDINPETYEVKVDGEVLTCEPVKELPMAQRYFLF
Jack bean urease, sequence (P07374 whole entry, looked up): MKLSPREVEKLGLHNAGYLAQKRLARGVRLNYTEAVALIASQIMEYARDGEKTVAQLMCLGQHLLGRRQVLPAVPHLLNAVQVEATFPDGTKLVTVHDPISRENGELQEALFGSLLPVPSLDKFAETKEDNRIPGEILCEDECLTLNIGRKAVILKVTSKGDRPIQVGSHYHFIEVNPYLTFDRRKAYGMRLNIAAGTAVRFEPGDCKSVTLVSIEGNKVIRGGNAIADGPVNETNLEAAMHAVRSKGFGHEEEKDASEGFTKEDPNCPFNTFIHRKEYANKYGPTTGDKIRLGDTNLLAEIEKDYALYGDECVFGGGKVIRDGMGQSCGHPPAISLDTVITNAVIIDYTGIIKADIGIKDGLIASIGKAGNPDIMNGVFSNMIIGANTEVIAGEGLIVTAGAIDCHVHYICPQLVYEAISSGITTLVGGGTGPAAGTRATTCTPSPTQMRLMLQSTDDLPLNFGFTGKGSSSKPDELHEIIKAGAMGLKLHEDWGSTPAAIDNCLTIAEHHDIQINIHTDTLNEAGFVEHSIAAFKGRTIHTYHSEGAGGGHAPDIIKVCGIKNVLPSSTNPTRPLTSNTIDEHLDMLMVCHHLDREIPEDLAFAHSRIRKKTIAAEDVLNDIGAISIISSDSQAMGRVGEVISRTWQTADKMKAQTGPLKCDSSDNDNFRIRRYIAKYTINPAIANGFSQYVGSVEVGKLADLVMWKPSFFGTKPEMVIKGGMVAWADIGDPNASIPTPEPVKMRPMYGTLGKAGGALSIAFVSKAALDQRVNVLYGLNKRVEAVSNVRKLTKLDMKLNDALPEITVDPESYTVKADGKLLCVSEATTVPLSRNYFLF

A word on the Ki: it is a measure of affinity in units of concentration, obtained from inhibition or displacement. What is called viability is the share of living cells, or the viability signal relative to a control. Turning to `COc1cccc(C(c2c(O)c3ccccc3oc2=O)c2c(O)c3ccccc3oc2=O)c1` [compound 1], the Ki was determined as 19.3 ± 0.1 µM on Jack bean urease and 15.5 ± 0.2 µM in data set [3] (setting [4]). Also, the Type of inhibition result at Jack bean urease is given as “Competitive”; in data set [3] (Urease (BP)), “competitively; also recorded: Competitive”. Moreover, the figures for the “Kmapp” value (on Jack bean urease; in data set [3] (Urease (BP))) were 5.6 mM and 11.3 mM, respectively. Moreover, the Vmaxapp on Jack bean urease came out at 109; in data set [3] (Urease (BP)), 159.3. The same molecule gave a viability at 200 µg/mL in data set [1] of 67.5 ± 3.1%. The “Lemna Welv. phytotoxicity (growth inhibition)” value is on record as 9.9 in data set [2] (conc. of compound 10 μg/mL), 60.3 in data set [2] (conc. of compound 100 μg/mL) and 80 in data set [2] (conc. of compound 1000 μg/mL).
Turning to `O=c1oc2ccccc2c(O)c1C(c1ccncc1)c1c(O)c2ccccc2oc1=O` [compound 2], the results for the Ki (on Jack bean urease; in data set [3] (setting [4])) were 71 ± 0.3 µM and 51.3 ± 0.4 µM, respectively. Further, the Type of inhibition entry is on record as “Competitive” at Jack bean urease and “Noncompetitive” in data set [3] (Urease (BP)). Also, the “Kmapp” value at Jack bean urease was 7.7 mM; in data set [3] (Urease (BP)) it was 5.2 mM. In addition, the figures for the Vmaxapp (at Jack bean urease; in data set [3] (Urease (BP))) were 106 and 98.0, respectively. This molecule displayed a viability at 200 µg/mL in data set [1] of 85.1 ± 2.5%. Besides, the “Lemna Welv. phytotoxicity (growth inhibition)” value in data set [2] (conc. of compound 10 μg/mL) is 6.5; in data set [2] (conc. of compound 100 μg/mL) it was 33; in data set [2] (conc. of compound 1000 μg/mL), 52.7.
As to `CC(c1c(O)c2ccccc2oc1=O)c1c(O)c2ccccc2oc1=O` [compound 3], the Ki on Jack bean urease was 59.4 ± 0.1 µM; in data set [3] (setting [4]), 53 ± 0.01 µM. Moreover, the Type of inhibition entry at Jack bean urease was “Competitive”; in data set [3] (Urease (BP)), “Uncompetitive”. In addition, the “Kmapp” value is listed as 8.3 mM at Jack bean urease and 4.0 mM in data set [3] (Urease (BP)). Further, the Vmaxapp on Jack bean urease was determined as 108; in data set [3] (Urease (BP)), 115.3. Also, the viability at 200 µg/mL in data set [1] is 100 ± 1%. Besides, the “Lemna Welv. phytotoxicity (growth inhibition)” value stood at 6.4 in data set [2] (conc. of compound 10 μg/mL), 22.5 in data set [2] (conc. of compound 100 μg/mL) and 54.8 in data set [2] (conc. of compound 1000 μg/mL).
`C/C=C/C(c1c(O)c2ccccc2oc1=O)c1c(O)c2ccccc2oc1=O` [compound 4]: at Jack bean urease, the Ki stood at 65.9 µM, the Type of inhibition entry was “Competitive”, the “Kmapp” value came to 9.1 mM and the Vmaxapp is 105. The viability at 200 µg/mL in data set [1] came out at 13.2 ± 4.2%. Further, the “Lemna Welv. phytotoxicity (growth inhibition)” value in data set [2] (conc. of compound 10 μg/mL) worked out at 38.23. Moreover, in data set [2] (conc. of compound 100 μg/mL), the “Lemna Welv. phytotoxicity (growth inhibition)” value is on record as 100. For the same molecule, in data set [3] (Urease (BP)), the Type of inhibition entry is “Uncompetitive”, the “Kmapp” value worked out at 3.8 mM and the Vmaxapp is 101.0. In data set [3] (setting [4]), the Ki worked out at 48.3 ± 0.01 µM.
On to `O=c1oc2ccccc2c(O)c1C(c1cc[nH]c1)c1c(O)c2ccccc2oc1=O` [compound 5], for which the results for the Ki (on Jack bean urease; in data set [3] (setting [4])) were 53.3 ± 0.4 µM and 68.1 ± 0.3 µM, respectively. The Type of inhibition entry at Jack bean urease is “Competitive”; in data set [3] (Urease (BP)), “Uncompetitive”. In addition, the “Kmapp” value on Jack bean urease is 7.8 mM; in data set [3] (Urease (BP)), 3.9 mM. The Vmaxapp on Jack bean urease is 103; in data set [3] (Urease (BP)), 93.7. In data set [1], this molecule displayed a viability at 200 µg/mL of 100 ± 0.5%. Further, the “Lemna Welv. phytotoxicity (growth inhibition)” value came to 9.00 in data set [2] (conc. of compound 10 μg/mL), 25.00 in data set [2] (conc. of compound 100 μg/mL) and 61.4 in data set [2] (conc. of compound 1000 μg/mL). Moreover, the “selectivity between B.P. urease and J.B. urease” value in data set [3] (comparison of potency against both ureases) is listed as “selective for J.B. uraese”.
As to `CCCCC(c1c(O)c2ccccc2oc1=O)c1c(O)c2ccccc2oc1=O` [compound 6], the Ki at Jack bean urease amounted to 75 ± 0.1 µM; in data set [3] (setting [4]), 27.5 µM. Also, the Type of inhibition result is reported as “Competitive” at Jack bean urease and “competitively; also recorded: Competitive” in data set [3] (Urease (BP)). The “Kmapp” value is on record as 9.5 mM on Jack bean urease and 13.0 mM in data set [3] (Urease (BP)). Besides, the results for the Vmaxapp (on Jack bean urease; in data set [3] (Urease (BP))) were 106 and 159.2, respectively. In data set [1], the viability at 200 µg/mL worked out at 45.5 ± 4%. The results for the “Lemna Welv. phytotoxicity (growth inhibition)” value in data set [2] (conc. of compound 10 μg/mL), in data set [2] (conc. of compound 100 μg/mL) and in data set [2] (conc. of compound 1000 μg/mL) were 10.60, 42.50 and 69.6, respectively.
Take `O=c1oc2ccccc2c(O)c1Cc1c(O)c2ccccc2oc1=O` [compound 7]: at Jack bean urease, the Ki is 15 ± 0.1 µM, the Type of inhibition entry is given as “Competitive”, the “Kmapp” value is on record as 7.6 mM and the Vmaxapp is listed as 102. In data set [1], this molecule displayed a viability at 200 µg/mL of 100 ± 4.3%. The molecule also gave a Ki in data set [3] of 13.3 ± 0.2 µM. In addition, in data set [3] (Urease (BP)), the Type of inhibition entry is “competitively; also recorded: Competitive”, the “Kmapp” value turned out to be 9.9 mM and the Vmaxapp is on record as 162.5.
Regarding `O=c1oc2ccccc2c(O)c1C(/C=C/c1ccccc1)c1c(O)c2ccccc2oc1=O` [compound 8], the Ki on Jack bean urease was 21.5 µM; in data set [3] (setting [4]), 19 ± 0.1 µM. Moreover, the Type of inhibition result is “Competitive” on Jack bean urease and “competitively; also recorded: Competitive” in data set [3] (Urease (BP)). Further, the figures for the “Kmapp” value (at Jack bean urease; in data set [3] (Urease (BP))) were 7.5 mM and 7.7 mM, respectively. Further, the values for the Vmaxapp (at Jack bean urease; in data set [3] (Urease (BP))) were 104 and 161.7, respectively. Moreover, in data set [1], the viability at 200 µg/mL amounted to 100 ± 5.2%. The “Lemna Welv. phytotoxicity (growth inhibition)” value stood at 13.00 in data set [2] (conc. of compound 10 μg/mL), 22.99 in data set [2] (conc. of compound 100 μg/mL) and 70.0 in data set [2] (conc. of compound 1000 μg/mL).
With `O=c1oc2ccccc2c(O)c1C(c1c(O)c2ccccc2oc1=O)c1c[nH]c2ccccc12` [compound 9], the Ki at Jack bean urease was 62.9 ± 0.5 µM; in data set [3] (setting [4]), 59.5 ± 0.2 µM. Besides, the Type of inhibition result on Jack bean urease is listed as “Competitive”; in data set [3] (Urease (BP)), “Uncompetitive”. The entries for the “Kmapp” value (on Jack bean urease; in data set [3] (Urease (BP))) were 11.6 mM and 3.2 mM, respectively. The results for the Vmaxapp (at Jack bean urease; in data set [3] (Urease (BP))) were 108 and 97.2, respectively. This molecule also returned a viability at 200 µg/mL in data set [1] of 100 ± 5.2%. Besides, the “Lemna Welv. phytotoxicity (growth inhibition)” value in data set [2] (conc. of compound 10 μg/mL) turned out to be 41.66; in data set [2] (conc. of compound 100 μg/mL), 50.00.
Turning to `O=c1oc2ccccc2c(O)c1C(c1cccnc1)c1c(O)c2ccccc2oc1=O` [compound 10], the Ki on Jack bean urease came to 68 ± 0.1 µM; in data set [3] (setting [4]) it was 63.6 ± 0.2 µM. Further, the results for the Type of inhibition result (on Jack bean urease; in data set [3] (Urease (BP))) were “Competitive” and “competitively”, respectively. Moreover, the “Kmapp” value at Jack bean urease is recorded as 10.6 mM; in data set [3] (Urease (BP)), 10.3 mM. Besides, at Jack bean urease, the Vmaxapp was found to be 105. The molecule also yielded a viability at 200 µg/mL in data set [1] of 95.4 ± 5.2%. For the same molecule, the “Lemna Welv. phytotoxicity (growth inhibition)” value was 23.8 in data set [2] (conc. of compound 10 μg/mL), 47.6 in data set [2] (conc. of compound 100 μg/mL) and 57.14 in data set [2] (conc. of compound 1000 μg/mL).
